Each structure is given as a SMILES string.

Assay [1] can be described thus: Laser Doppler circulation in five human subjects, NO creams and controls (Example 8). It is filed as in vivo. The note with it: positive control formulation containing 0.1% methyl nicotinate. The text has this:
This example illustrates delivery of nitric oxide formulations to five human subjects, using procedures and formulations similar to those discussed in Example 5. Each person served as their own control for the testing. A Moor Instruments Laser Doppler was used to determine circulation. […] The formulations used produce positive, almost immediate results when applied to the skin which, in these studies, was manifested by vasodilatation of the cutaneous vascular system.
For each subject, the following creams were applied: a negative control formulation (containing no NO), 0.010 gram of a 10,000 ppm NO formulation, 0.020 gram of a 10,000 ppm NO formulation, and a positive control formulation containing 0.1% methyl nicotinate. The formulations were prepared using procedures similar to those discussed in Example 1.

Assay [2] is described as follows: Laser Doppler capillary blood flow in humans, 10,000 ppm NO in closed Hilltop chamber (Example 5). It is filed as in vivo, human. Conditions: applied to the skin at 1/10% in alcohol. The text has this:
The formulation used in these studies contained nitric oxide dispersed in a lipid matrix. […] Nitric oxide is a very rapid acting molecule, and these studies used a system that employed laser Doppler with a covered chamber. The formulation was placed into the chamber and then attached to the skin by an adhesive layer on the covering. This provided a stable measuring device as determined by multiple normal evaluations of the capillary blood flow without treatment of nitric oxide.
A known positive control, methyl nicotinate, was applied to the skin at a concentration of 1/10% in alcohol. […] The vascular dynamics are such that when the blood vessels dilate physical parameters follow Bernoulli's law. This states that as one increases the diameter of a tube containing a liquid to flow will increase but the pressure and the speed of the liquid will decrease. The laser Doppler device accurately measured these parameters.
The test product was labeled as 10,000 ppm NO (nitric oxide). The study participants had 100 mg of the test product applied in a closed Hilltop chamber on the forearm. […]
A Moor Instruments DRT4 Laser Doppler Blood Flow Monitor (Devon, England) was used in these studies. The laser Doppler technique measured blood flow in the microcapillaries of the skin that are close to the skin surface and the blood flow in underlying arterioles and venules that help to regulate skin temperature. […]

Regarding `COC(=O)c1cccnc1` [methyl nicotinate], the “Vasodilatation (laser Doppler)” value in assay [1] was “vasodilatation was observed”. Besides, the “Laser Doppler response of positive control” value in assay [2] is “rapid response typical of the vasodilator”.
